From US10745389B2, “HDAC6 selective inhibitors, preparation method therefor, and application thereof” (CSTONE PHARMACEUTICALS (SUZHOU) CO., LTD., priority 2017, dated 2020)

Tested on: human myeloma MM.1S cells subcutaneous xenograft tumor
Assay: In vivo pharmacodynamic study with Ixazomib, MM.1S subcutaneous xenograft in CB-17 SCID model
Parameters: species or system CB-17 SCID mouse
Details: Ixazomib 4 mg/kg administered alone, 21st day
Method: The purpose of this experiment was to investigate the in vivo therapeutic effect of the compounds of the present invention in combination with proteasome inhibitor Ixazomib on human myeloma MM.1S cell subcutaneous xenografts in the CB-17 SCID model.
Human myeloma MM. S cells were cultured in vitro in a single layer, culture environment was RPMI-1640 medium (supplier: Gibco; Cat. No. 22400-089) supplemented with 10% fetal bovine serum, 37° C. 5% CO2 incubator. Then passage was done by routinely digested with trypsin-EDTA twice a week. When the cell saturation rate reached 80%-90%, the cells were collected, counted, and inoculated.
0.2 mL of 5×10^6 MM.1S cells were subcutaneously inoculated into the right back of each mouse (Beijing Weitong Lihua Biotechnology Co., Ltd., female, 6-8 weeks old) (PBS: Matrigel=1:1)). Administration by groups was initiated when the average tumor volume reached 100-150 mm^3.
Animals were monitored daily for health and mortality, routine tests includes observations of tumor growth and drug treatment effects on animal performance, such as behavioral activities, food intake (visual inspection only), weight change (measured every other day), appearance signs or other abnormal conditions. The number of animal deaths and side effects in the group were recorded based on the number of animals in each group.
The experimental index is to investigate whether tumor growth is inhibited, delayed or cured. Tumor diameters were measured with vernier calipers three times a week. The tumor volume is calculated by: V=0.5a×b^2, where a and b represent the long and short diameters of the tumor, respectively.
The antitumor effect of the compound was evaluated by TGI (%) or relative tumor growth rate T/C (%). TGI (%), reflecting the tumor growth inhibition rate. […]

CC(C)C[C@H](NC(=O)CNC(=O)c1cc(Cl)ccc1Cl)B(O)O [Ixazomib]
tumor volume: 916 mm^3
T/C (vs solvent control): 34.97%
TGI (vs solvent control): 68.65%
